Blank lines part the entries; values can stand above or below the molecule they belong to.
What was measured:
rats [1] = test: Bioavailability studies on rats (liver and kidney functions, blood picture, lipid profile); format: in vivo; conditions: for Lipid profile: all groups
Text: The study on rats included five groups, group 1 control, 2 receiving cu, group.2 pyrazinic, group 3 complex with large dose, & group 5 receiving complex with small dose.

dilated Cardiomyopathy = test: Clinical trials in cardiomyopathy; format: in vivo, human; conditions: clinically and in ECHO cardiographic measurements
Text: Improvement is shown both clinically and in the ECHO cardiographic measurements.

[2] = test system: muscle weakness (muscle dystrophies, post stroke weakness); test: Clinical trials for treatment of weakness of muscles; format: in vivo, human
Text: The complex used in treatment of muscle weakness for different underlying causes (muscle dystrophies post stroke weakness). […] When the patient reaches the optimum dose, onset of improvement in muscle power is observed within hours of drug intake.

fatigue = test: Clinical trials for treatment of fatigue in humans; format: in vivo
[3] = test system: stem cells, CD4 and CD8 cells; test: In vivo stem cell, CD4 and CD8 counts before and during medication; conditions: before and at regular intervals of medication
Text: We hypothesized that the drug may have a role in stimulating the stem cells present in the various organs to differentiate. […] In vivo we measured the stem cell count together with CD8 and CD4 cells before, and at regular intervals of medication.

[4] = Stability of the solid complex; format: physicochemical
[5] = test system: male infertility (sperm count, motility); test: Male infertility study, 20 patients; format: in vivo, human
[6] = Solubility of the complex in solvents; format: physicochemical
Text: Solubility: the complex is insoluble in non polar solvents, e.g. benzene, carbon tetrachloride, etc., and insoluble in polar solvents: water, methanol, ethanol, acetone, but soluble in these solvents upon heating in inert atmosphere, to prevent oxidation.

rats [7] = test: Toxicity of the complex (LD50, mortality within 24 hrs); format: in vivo
Description: Seventy two rats (250+/−2.0 g b.wt) were randomly located into 12 groups of 6 rats each
Mortality in each group were recorded within 24 hrs. The LD50 was calculated according to Behecens and Karbere (1970)

[8] = complex at large and small dose

Lipid profile (rats [1]): didn't show significant difference
Liver and kidney functions versus control group (rats [1]; [8]): no significant difference
Molecule: O=C(O)c1cnccn1 [pyrazinic, pyrazinic acid, reference compound]

Molecule: [CuCI (pyrazinic acid) 2]. 2H2O [complex]
Cases improved, dilated cardiomyopathy due to other causes (dilated Cardiomyopathy): 80%
Improvement of dilated cardiomyopathy secondary to Duchenne muscle dystrophy (dilated Cardiomyopathy): improved all cases
Lipid profile (rats [1]): didn't show significant difference
Liver and kidney functions versus control group (rats [1]; [8]): no significant difference
Lymphocytic count (complete blood picture) (rats [1]; complex at large and small dose, not exceeding the normal range): increase of lymphocytic count
Clinical improvement in DMS patients ([2]; affected by age, weight and degree of dystrophy): dose dependant
Onset of improvement in muscle power ([2]; at optimum dose, after drug intake): within hours
Agonizing fatigue in Parkinsonism, myositis, disseminated sclerosis (fatigue): improves markedly
Effect in all types of fatigue (fatigue): relieved the muscle pain, increased the physical activity and productivity
CD4/CD8 [3]: no disturbance
CD4 and CD8 number [3]: increase
Stem cell count [3]: significant decrease
Stability [4]: sufficiently stable when well-dried
Sperm motility ([5]; all cases): significant improvement
Healthy babies, azospermic patients ([5]; among the seven responding azospermic patients): two of them got healthy babies
Healthy babies, oligospermia ([5]; oligospermia cases): four cases got also healthy babies
Sperm count in azospermic patients ([5]; seven out of nine patients, within 6 weeks of treatment): 1.5-3 millions/hpf
Sperm count in oligospermia ([5]; within 1 month of treatment): doubling of the count
Solubility in non polar solvents ([6]; e.g. benzene, carbon tetrachloride): insoluble
Solubility in polar solvents ([6]; water, methanol, ethanol, acetone): insoluble
Solubility in polar solvents upon heating ([6]; water, methanol, ethanol, acetone, heating in inert atmosphere): soluble
LD50 (intrapperitoneally) (rats [7]; intraperitoneal): 128 mg/kg
LD50 (oral) (rats [7]; oral): 1104.17 mg/kg

— patent publication US20090105207A1, “Copper (1) Complex” (priority 2006, published 2009)
